Experimental data: patent publication US7160903B2, “Sulfonylaminocarboxylic acids” (Sanofi-Aventis Deutschland GmbH, priority 1997, dated 2007)

Assays:
[1] = biological target: T1, stromelysin (MMP-3) (Homo sapiens, UniProt P08254); experiment: Enzymatic activity of the catalytic domain of human stromelysin (fluorogenic substrate); format: biochemical; conditions: pH=6.5, 15 min preincubation, fluorescence 328 nm (ex)/393 nm (em)
T1 construct: enzymatic activity of the catalytic domains of human stromelysin and of neutrophil collagenase; made in house
T1 sequence (P08254 100-272 limits assumed): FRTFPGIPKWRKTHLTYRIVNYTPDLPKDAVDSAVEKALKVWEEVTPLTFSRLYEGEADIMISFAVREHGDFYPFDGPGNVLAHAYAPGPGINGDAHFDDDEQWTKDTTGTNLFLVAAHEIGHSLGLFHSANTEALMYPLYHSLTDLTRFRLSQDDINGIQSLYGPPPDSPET
Procedure: (§1) Preparation and determination of the enzymatic activity of the catalytic domains of human stromelysin and of neutrophil collagenase:
(§2) The enzymes stromelysin (MMP-3) and neutrophil collagenase (MMP-8) were prepared according to Ye et al. (Biochemistry; 31 (1992) pages 11231–11235). To measure the enzyme activity or the enzyme inhibitor action, 70 μl of buffer solution and 10 μl of enzyme solution are incubated for 15 min with 10 μl of a 10% strength (v/v) aqueous dimethyl sulfoxide solution, which optionally contains the enzyme inhibitor. After addition of 10 μl of a 10% strength (v/v) aqueous dimethyl sulfoxide solution which contains 1 mmol/L of the substrate, the enzyme reaction is monitored by fluorescence spectroscopy (328 nm (ex)/393 nm(em)). The enzyme activity is shown as the extinction increase/min. The IC50 values listed in Table 2 are determined as those inhibitor concentrations which in each case led to a 50% inhibition of the enzyme.
(§3) The buffer solution contains 0.05% Brij (Sigma, Deisenhofen, Germany) and also 0.1 mol/L Tris/HCl, 0.1 mol/L NaCl, 0.01 mol/L CaCl2 and 0.1 mol/L piperazine-N,N′-bis[2-ethanesulfonic acid] (pH=6.5). The enzyme solution contains 5 μg/ml of one of the enzyme domains prepared according to Ye et al. The substrate solution contains 1 mmol/L of the fluorogenic substrate (7-methoxycoumarin-4-yl)acetyl-Pro-Leu-Gly-Leu-3-(2′,4′-dinitrophenyl)-L-2,3-diaminopropionyl-Ala-Arg-NH2 (Bachem, Heidelberg, Germany).

[2] = biological target: T2, neutrophil collagenase (MMP-8) (Homo sapiens, UniProt P22894); experiment: Enzymatic activity of the catalytic domain of neutrophil collagenase (fluorogenic substrate); format: biochemical; conditions: pH=6.5, 15 min preincubation, fluorescence 328 nm (ex)/393 nm (em), read-out: Neutr. collagenase IC50
T2 construct: enzymatic activity of the catalytic domains of human stromelysin and of neutrophil collagenase; made in house
T2 sequence (P22894 100-262 limits assumed): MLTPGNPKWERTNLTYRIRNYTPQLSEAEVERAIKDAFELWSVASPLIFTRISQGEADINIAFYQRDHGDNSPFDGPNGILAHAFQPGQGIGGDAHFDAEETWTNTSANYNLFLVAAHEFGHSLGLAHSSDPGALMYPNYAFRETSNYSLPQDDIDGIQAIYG
Procedure: as §1, §2, §3

Row | SMILES | IC50 [1] [nM] | IC50 [2] [nM] | melting point
1 | O=C(O)[C@@H](CCO)NS(=O)(=O)c1ccc(Oc2ccccc2)cc1 (racemic) [Example 1, N-(Phenoxybenzenesulfonyl) homoserine] | 400 | 10 | 134 °C
2 | C=CC(NS(=O)(=O)c1ccc(-c2ccc(Cl)cc2)cc1)C(=O)O (racemic) [Example 6] | 200 | 20 | 
3 | O=C(O)C(CSC1=NCCS1)NS(=O)(=O)c1ccc(-c2ccc(Cl)cc2)cc1 (racemic) [Example 19] | 500 | 50 | 
4 | COc1ccc(CC(NS(=O)(=O)c2ccc(-c3ccc(N(C)C)cc3)cc2)C(=O)O)cc1OC (racemic) [Example 24] |  |  | 230 °C
5 | O=C(O)C(NS(=O)(=O)c1ccc(-c2ccc(Cl)cc2)cc1)c1ccsc1 (racemic) [Example 26] | 400 | 40 | 
6 | O=C(O)[C@@H](NS(=O)(=O)c1ccc(Oc2ccccc2)cc1)[C@@H](O)c1ccc2c(c1)OCO2 (racemic) [Example 35] | 100 | 10 | 176 °C
7 | O=C(O)[C@H]1C[C@@H](O)CN1S(=O)(=O)c1ccc(-c2ccc(Cl)cc2)cc1 [Example 2, (2R)-1-(4-Chlorobiphenylsulfonyl)-4-cis-hydroxyproline] | 100 | 90 | 
8 | O=C(O)CNS(=O)(=O)c1ccc(Oc2ccc(Cl)cc2)cc1 [Example 3] | 20000 | 200 | 162 to 164 °C
9 | CN(CC(=O)O)S(=O)(=O)c1ccc(Oc2ccc(Cl)cc2)cc1 [Example 4] |  |  | 128 to 130 °C
10 | O=C(O)[C@@H](CO)NS(=O)(=O)c1ccc(-c2ccc(Cl)cc2)cc1 [Example 7] | 200 | 40 | 
11 | O=C(O)[C@H](CO)NS(=O)(=O)c1ccc(Oc2ccccc2)cc1 [Example 8] | 300 | 10 | 202 to 203 °C
12 | C[C@H](O)[C@H](NS(=O)(=O)c1ccc(Oc2ccccc2)cc1)C(=O)O [Example 9] | 300 | 20 | 96 to 98 °C
13 | CSCC[C@@H](NS(=O)(=O)c1ccc(-c2ccc(Cl)cc2)cc1)C(=O)O [Example 10] | 90 | 10 | 
14 | CSCC[C@@H](NS(=O)(=O)c1ccc(-c2ccccn2)s1)C(=O)O [Example 12] |  |  | 115 to 125 °C
15 | CSCC[C@@H](NS(=O)(=O)c1ccc(-c2ccon2)s1)C(=O)O [Example 13] |  |  | 70 to 76 °C
16 | C[S+]([O-])CC[C@@H](NS(=O)(=O)c1ccc(-c2ccc(Cl)cc2)cc1)C(=O)O (stereo partly shown) [Example 15] | 100 | 10 | 
17 | CS(=O)(=O)CC[C@@H](NS(=O)(=O)c1ccc(-c2ccc(Cl)cc2)cc1)C(=O)O [Example 16] | 70 | 7 | 
18 | CS(=O)(=O)CC[C@H](NS(=O)(=O)c1ccc(-c2ccc(Cl)cc2)cc1)C(=O)O [Example 17] | 100 | 20 | 
19 | O=C(c1ccccc1)c1ccc(C[C@@H](NS(=O)(=O)c2ccc(-c3ccc(Cl)cc3)cc2)C(=O)O)cc1 [Example 23] | 1000 | 600 | 
20 | O=C(O)[C@@H](CCc1ccccc1)NS(=O)(=O)c1ccc(-c2ccc(Cl)cc2)cc1 [Example 25] | 200 | 40 | 
21 | O=C(O)[C@@H](Cc1csc2ccccc12)NS(=O)(=O)c1ccc(-c2ccc(Cl)cc2)cc1 [Example 28] | 300 | 60 | 
22 | O=C(O)[C@@H](Cc1c[nH]c2ccccc12)NS(=O)(=O)c1ccc(-c2ccc(Cl)cc2)cc1 [Example 29, (R)-N-(4-Chlorobiphenylsulfonyl)tryptophan] | 80 | 9 | 
23 | O=C(O)[C@H](Cc1c[nH]cn1)NS(=O)(=O)c1ccc(Oc2ccccc2)cc1 [Example 30] |  |  | 183 to 185 °C
24 | O=C(O)[C@H](CSCc1ccccc1)NS(=O)(=O)c1ccc(-c2ccc(Cl)cc2)cc1 [Example 32] | 200 | 40 | 
25 | O=C(O)C(NS(=O)(=O)c1ccc(-c2ccc(Cl)cc2)cc1)C(O)c1ccccc1 (stereo not shown) [Example 34] | 200 | 20 | 
26 | O=C(O)C(NS(=O)(=O)c1ccc(-c2ccc(Cl)cc2)cc1)C(O)c1cccs1 (stereo not shown) [Example 36] | 200 | 10 | 
27 | O=C(O)C[C@H](NS(=O)(=O)c1ccc(-c2ccccc2)cc1)C(=O)O [Example 37] |  |  | 186.7 °C
28 | O=C(O)C[C@@H](NS(=O)(=O)c1ccc(-c2ccccc2)cc1)C(=O)O [Example 38] |  |  | > 55 °C
29 | O=C(C[C@H](NS(=O)(=O)c1ccc(-c2ccc(Cl)cc2)cc1)C(=O)O)OCc1ccccc1 [Example 41] | 200 | 30 | 
30 | O=C(O)C[C@H](NS(=O)(=O)c1ccc(-c2ccc(Cl)cc2)cc1)C(=O)OCc1ccccc1 [Example 42] | 400 | 30 | 

The next lines start with the values.

Row | IC50 [1] [nM] | IC50 [2] [nM] | melting point | SMILES
31 |  |  | 227 to 230 °C | O=C(CCC(NS(=O)(=O)c1ccc(-c2ccccc2)cc1)C(=O)O)Nc1ccccc1 (racemic) [Example 47]
32 |  |  | 212 to 214 °C | CN(C)c1ccc(-c2ccc(S(=O)(=O)NC(CCC(=O)Nc3ccccc3)C(=O)O)cc2)cc1 (racemic) [Example 48]
33 | 800 | 40 | 174.5 to 175.5 °C | O=C(O)C1CCCCN1S(=O)(=O)c1ccc(-c2ccccc2)cc1 (racemic) [Example 55]
34 | 3000 | 600 | 195 to 196 °C | O=C(O)C1CCCCN1S(=O)(=O)c1ccc(-n2nccn2)cc1 (racemic) [Example 63]
35 | 100 | 3 | > 230 °C (dec.) | COc1ccc(CC(NS(=O)(=O)c2ccc(-c3ccc(N(C)C)cc3)cc2)C(=O)O)cc1OC (racemic) [Example 65]
36 | 10 | 4 | 238 to 239 °C | O=C(CCC(NS(=O)(=O)c1ccc(-c2ccc(Cl)cc2)cc1)C(=O)O)Nc1ccccc1 (racemic) [Example 69]
37 | 5 | 3 | 234 to 236 °C (dec.) | O=C(CCC(NS(=O)(=O)c1ccc(-c2ccc(N3CCCC3)cc2)cc1)C(=O)O)Nc1ccccc1 (racemic) [Example 76]
38 | 20 | 2 | > 230 °C (dec.) | O=C(O)C(Cc1c[nH]c2ccc(F)cc12)NS(=O)(=O)c1ccc(-c2ccc(N3CCCC3)cc2)cc1 (racemic) [Example 78]
39 | 100 | 10 | 171.5 to 172 °C | O=C(O)CCCC(NS(=O)(=O)c1ccc(-c2ccccc2)cc1)C(=O)O (racemic) [Example 82]
40 | 100 | 7 |  | O=C(O)C(Cc1cccnc1)NS(=O)(=O)c1ccc(-c2ccc(Cl)cc2)cc1 (racemic) [Example 88]
41 | 30 | 10 |  | O=C(O)C(CCc1c[nH]c2ccccc12)NS(=O)(=O)c1ccc(-c2ccc(Cl)cc2)cc1 (racemic) [Example 105]
42 |  |  | 105 °C | O=C(O)C[C@@H](C(=O)O)N(Cc1ccncc1)S(=O)(=O)c1ccc(-c2ccccc2)cc1 [Example 43]
43 | 90 | 10 |  | NC(=O)C[C@@H](NS(=O)(=O)c1ccc(-c2ccc(Cl)cc2)cc1)C(=O)O [Example 44]
44 |  |  | 169 to 171 °C | O=C(O)CCN(CC(=O)O)S(=O)(=O)c1ccc(Oc2ccc(Cl)cc2)cc1 [Example 45]
45 |  |  | 165 °C | CN(C)c1ccc(-c2ccc(S(=O)(=O)N[C@H](CCC(=O)O)C(=O)O)cc2)cc1 [Example 46]
46 |  |  | 213 to 215 °C | CN(C)c1ccc(-c2ccc(S(=O)(=O)N[C@@H](CCC(N)=O)C(=O)O)cc2)cc1 [Example 49]
47 |  |  | 266 °C | O=C(CC[C@H](NS(=O)(=O)c1ccc(-c2ccccc2)cc1)C(=O)O)Nc1ccc(C(=O)O)cc1 [Example 50]
48 | 50 | 5 |  | NC(=O)CC[C@@H](NS(=O)(=O)c1ccc(-c2ccc(Cl)cc2)cc1)C(=O)O [Example 51]
49 |  |  | 205 to 207 °C | NNC(=O)CC[C@H](NS(=O)(=O)c1ccc(-c2ccccc2)cc1)C(=O)O [Example 59]
50 |  |  | 138 to 139 °C | O=C(O)[C@@H]1CN1S(=O)(=O)c1ccc(-c2ccccc2)cc1 (stereo partly shown) [Example 64]
51 | 600 | 20 |  | NC(=O)CC[C@@H](NS(=O)(=O)c1ccc(-c2ccccc2)cc1)C(=O)O [Example 72]
52 |  | 20 | 182.5 to 183.5 °C | O=C(O)[C@H](CCC(=O)N1CCc2ccccc21)NS(=O)(=O)c1ccc(-c2ccccc2)cc1 [Example 100]
53 |  |  | > 130 °C (dec.) | O=C(O)[C@H](CCC(=O)N1CCc2ccccc21)NS(=O)(=O)c1ccc(-c2ccc(N3CCCC3)cc2)cc1 [Example 101]
54 | 40 | 5 |  | CP(=O)(O)CC[C@H](NS(=O)(=O)c1ccc(-c2ccc(Cl)cc2)cc1)C(=O)O [Example 104]
